# Several values for one entry are separate records, joined by “and”; a condition that tells them apart may be missing. Equal values may be shown once. Inconclusive results and toxic doses are left out.
# System: CD2F1 mice, L1210 leukemia ip, survival T/C
# Assay: NCI In Vivo Anticancer Drug Screen. Data for tumor model L1210 Leukemia (intraperitoneal) in CD2F1 (CDF1) mice
# Details: endpoint: mean survival time, higher = longer survival
# How it was run: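 Each value reflects a quotient of treated over vehicle control outcomes in mice with a transplanted tumor.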
# [1] = dose: 50.0 mg/kg/injection, schedule: Q01DX009 (ip), vehicle: saline with Tween-80
# [2] = dose: 100.0 mg/kg/injection, schedule: Q01DX009 (ip), vehicle: saline with Tween-80
# [3] = dose: 200.0 mg/kg/injection, schedule: Q01DX009 (ip), vehicle: saline with Tween-80
# [4] = dose: 100.0 mg/kg/injection, schedule: Q04DX003 (ip), vehicle: saline with Tween-80
# [5] = dose: 400.0 mg/kg/injection, schedule: Q01DX009 (ip), vehicle: saline with Tween-80
# [6] = dose: 100.0 mg/kg/injection, schedule: Q04DX002 (ip), vehicle: saline with Tween-80
# [7] = dose: 200.0 mg/kg/injection, schedule: Q04DX002 (ip), vehicle: saline with Tween-80
# [8] = dose: 400.0 mg/kg/injection, schedule: Q04DX002 (ip), vehicle: saline with Tween-80
# [9] = dose: 200.0 mg/kg/injection, schedule: Q04DX003 (ip), vehicle: saline with Tween-80
# [10] = dose: 400.0 mg/kg/injection, schedule: Q04DX003 (ip), vehicle: saline with Tween-80
# [11] = dose: 100.0 mg/kg/injection, schedule: Q01DX009 (ip), vehicle: other
structure (smiles),measurement,setting,value
O=S1(=O)C=Cc2ccccc2O1,T/C,"dose: 75.0 mg/kg/injection, schedule: Q01DX009 (ip), vehicle: saline",102 % of control
same,T/C,"dose: 75.0 mg/kg/injection, schedule: Q04DX003 (ip), vehicle: saline",97 % of control
same,T/C,"dose: 150.0 mg/kg/injection, schedule: Q01DX009 (ip), vehicle: saline",102 % of control
same,T/C,"dose: 150.0 mg/kg/injection, schedule: Q04DX003 (ip), vehicle: saline",95 % of control
same,T/C,"dose: 300.0 mg/kg/injection, schedule: Q01DX009 (ip), vehicle: saline",100 % of control
same,T/C,"dose: 300.0 mg/kg/injection, schedule: Q04DX003 (ip), vehicle: saline",97 % of control
COc1c(O)ccc2c1CCCCC2=O,T/C,[1],100 % of control
same,T/C,[2],100 % of control
same,T/C,[3],100 % of control
CCC/C=C/C(O)C(C)C(C)C (stereo unspecified),T/C,[1],103 % of control
same,T/C,[2],103 % of control
same,T/C,[3],98 % of control
O=C(NC1CC1(c1ccccc1)c1ccccc1)NC1CC1(c1ccccc1)c1ccccc1 (stereo unspecified),T/C,"dose: 9.35 mg/kg/injection, schedule: Q01DX001 (ip), vehicle: other",93 % of control
same,T/C,"dose: 18.7 mg/kg/injection, schedule: Q01DX001 (ip), vehicle: other",91 % of control
same,T/C,"dose: 37.5 mg/kg/injection, schedule: Q01DX001 (ip), vehicle: other",94 % of control
CCOC(=O)Nc1cc(NCc2ccccc2)c2[nH]cnc2n1,T/C,"dose: 100.0 mg/kg/injection, schedule: Q01DX001 (ip), vehicle: Klucel (hydroxypropylcellulose) (HPC)",89 % of control
same,T/C,"dose: 200.0 mg/kg/injection, schedule: Q01DX001 (ip), vehicle: Klucel (hydroxypropylcellulose) (HPC)",95 % of control
same,T/C,"dose: 400.0 mg/kg/injection, schedule: Q01DX001 (ip), vehicle: Klucel (hydroxypropylcellulose) (HPC)",98 % of control
CCCCCCCC[n+]1ccc(C#N)cc1,T/C,"dose: 18.8 mg/kg/injection, schedule: Q01DX009 (ip), vehicle: saline",98 % of control
same,T/C,"dose: 37.5 mg/kg/injection, schedule: Q01DX009 (ip), vehicle: saline",93 % of control
CO[C@H](C(=O)[C@@H](O)[C@@H](C)O)[C@@H]1Cc2cc3cc(OC4CC(OC5CC(O)C(O)C(C)O5)C(O)C(C)O4)c(C)c(O)c3c(O)c2C(=O)[C@H]1OC1CC(OC2CC(OC3CC(C)(O)C(O)C(C)O3)C(O)C(C)O2)C(O)C(C)O1 (stereo partly specified),T/C,"dose: 0.13 mg/kg/injection, schedule: Q01DX009 (ip), vehicle: saline",95 % of control and 97 % of control and 101 % of control
same,T/C,"dose: 0.25 mg/kg/injection, schedule: Q01DX009 (ip), vehicle: saline",95 % of control and 97 % of control and 103 % of control
same,T/C,"dose: 0.5 mg/kg/injection, schedule: Q01DX009 (ip), vehicle: saline",93 % of control and 100 % of control and 105 % of control
same,T/C,"dose: 0.5 mg/kg/injection, schedule: Q01DX Z (ip), vehicle: saline",124 % of control
same,T/C,"dose: 1.0 mg/kg/injection, schedule: Q01DX009 (ip), vehicle: saline",101 % of control and 104 % of control and 107 % of control
CCN(CC)Cc1cc(O)ccc1NCCCNc1ccnc2cc(Cl)ccc12,T/C,[4],96 % of control
COc1cccc(C(=O)c2ccccc2NC(C)=O)c1,T/C,[2],101 % of control
same,T/C,[3],103 % of control
same,T/C,[5],98 % of control
Cc1ccc(C(=O)C=C(C(F)(F)F)C(F)(F)F)cc1,T/C,"dose: 6.25 mg/kg/injection, schedule: Q01DX009 (ip), vehicle: saline with Tween-80",102 % of control
same,T/C,"dose: 12.5 mg/kg/injection, schedule: Q01DX009 (ip), vehicle: saline with Tween-80",98 % of control
same,T/C,"dose: 25.0 mg/kg/injection, schedule: Q01DX009 (ip), vehicle: saline with Tween-80",98 % of control
O=C(O)c1cc(C(=O)O)c(-c2ccccc2)c(-c2ccccc2)c1,T/C,"dose: 100.0 mg/kg/injection, schedule: Q01DX001 (ip), vehicle: saline",97 % of control
same,T/C,"dose: 200.0 mg/kg/injection, schedule: Q01DX001 (ip), vehicle: saline",97 % of control
same,T/C,"dose: 400.0 mg/kg/injection, schedule: Q01DX001 (ip), vehicle: saline",101 % of control
Cc1cccc([N+](=O)[O-])n1,T/C,"dose: 25.0 mg/kg/injection, schedule: Q04DX003 (ip), vehicle: saline with Tween-80",109 % of control
same,T/C,"dose: 50.0 mg/kg/injection, schedule: Q04DX003 (ip), vehicle: saline with Tween-80",95 % of control
same,T/C,[4],98 % of control
S=C(Nc1ccccn1)NC1CC2C=CC1C2 (stereo unspecified),T/C,"dose: 100.0 mg/kg/injection, schedule: Q01DX001 (ip), vehicle: saline with Tween-80",93 % of control
same,T/C,"dose: 200.0 mg/kg/injection, schedule: Q01DX001 (ip), vehicle: saline with Tween-80",101 % of control
same,T/C,"dose: 400.0 mg/kg/injection, schedule: Q01DX001 (ip), vehicle: saline with Tween-80",108 % of control
CCNC(=O)Nc1nc2ccccc2s1,T/C,[6],103 % of control
same,T/C,[7],103 % of control
same,T/C,[8],92 % of control
S=C(Nc1ccc(Cl)cc1)Nc1ccc(Cl)cc1 (tested in a mixture with another compound),T/C,[2],92 % of control
same,T/C,[4],91 % of control
same,T/C,[3],97 % of control
same,T/C,[9],88 % of control
same,T/C,[5],90 % of control
same,T/C,[10],93 % of control
O/N=C(/CN1CCOCC1)c1ccc(Cl)cc1,T/C,"dose: 50.0 mg/kg/injection, schedule: Q01DX009 (ip), vehicle: saline",100 % of control
same,T/C,"dose: 100.0 mg/kg/injection, schedule: Q01DX009 (ip), vehicle: saline",97 % of control
same,T/C,"dose: 200.0 mg/kg/injection, schedule: Q01DX009 (ip), vehicle: saline",103 % of control
CCOC(=O)c1cc(=O)n(C)c2ccc(OCC)cc12,T/C,"dose: 100.0 mg/kg/injection, schedule: Q01DX009 (ip), vehicle: saline sonified",101 % of control
same,T/C,[4],100 % of control
same,T/C,"dose: 200.0 mg/kg/injection, schedule: Q01DX009 (ip), vehicle: saline sonified",97 % of control
same,T/C,[9],91 % of control
same,T/C,"dose: 400.0 mg/kg/injection, schedule: Q01DX009 (ip), vehicle: saline sonified",97 % of control
same,T/C,[10],91 % of control
O=C1CCC2(c3ccccc3)C1C2c1ccccc1 (stereo unspecified),T/C,[4],110 % of control
same,T/C,[9],112 % of control
same,T/C,[10],101 % of control
SCc1c(Cl)c(Cl)c(Cl)c(Cl)c1Cl,T/C,[6],94 % of control
same,T/C,[7],87 % of control
same,T/C,[8],97 % of control
CC(=O)c1ccc(N=NN(C)C)cc1,T/C,"dose: 2.37 mg/kg/injection, schedule: Q01DX009 (ip), vehicle: Klucel (hydroxypropylcellulose) (HPC)",96 % of control
same,T/C,"dose: 9.5 mg/kg/injection, schedule: Q01DX009 (ip), vehicle: Klucel (hydroxypropylcellulose) (HPC)",96 % of control
same,T/C,"dose: 19.0 mg/kg/injection, schedule: Q01DX009 (ip), vehicle: Klucel (hydroxypropylcellulose) (HPC)",110 % of control
same,T/C,"dose: 58.0 mg/kg/injection, schedule: Q01DX009 (ip), vehicle: Klucel (hydroxypropylcellulose) (HPC)",101 % of control
CCCCCCCCCCCCCC(=O)OC1C(CO)OC2C1Oc1nc(=N)ccn12 (stereo unspecified),T/C,"dose: 25.0 mg/kg/injection, schedule: Q01DX009 (ip), vehicle: other",153 % of control
same,T/C,"dose: 50.0 mg/kg/injection, schedule: Q01DX009 (ip), vehicle: other",212 % of control
same,T/C,[11],278 % of control
O=C(Cc1ccccn1)c1ccccc1,T/C,[11],101 % of control
same,T/C,"dose: 200.0 mg/kg/injection, schedule: Q01DX009 (ip), vehicle: other",96 % of control
same,T/C,"dose: 400.0 mg/kg/injection, schedule: Q01DX009 (ip), vehicle: other",96 % of control
O=C1C=CC(=Nc2ccccc2)O1,T/C,"dose: 2.5 mg/kg/injection, schedule: Q01DX009 (ip), vehicle: saline with Tween-80",96 % of control
same,T/C,"dose: 2.5 mg/kg/injection, schedule: Q04DX003 (ip), vehicle: saline with Tween-80",101 % of control
same,T/C,"dose: 5.0 mg/kg/injection, schedule: Q01DX009 (ip), vehicle: saline with Tween-80",102 % of control
same,T/C,"dose: 5.0 mg/kg/injection, schedule: Q04DX003 (ip), vehicle: saline with Tween-80",101 % of control
same,T/C,"dose: 10.0 mg/kg/injection, schedule: Q01DX009 (ip), vehicle: saline with Tween-80",93 % of control
same,T/C,"dose: 10.0 mg/kg/injection, schedule: Q04DX003 (ip), vehicle: saline with Tween-80",98 % of control
